Eight molecules from patent publication US11466028B2, “Fused 1,4-oxazepines as BET protein degraders” (THE REGENTS OF THE UNIVERSITY OF MICHIGAN, priority 2016, dated 2022) can be followed below.

For one assay, the system named is RS4;11 xenograph tumors. The assay is described as follows: RS4;11 xenograft model. Type of assay: in vivo, SCID mice. Conditions: SCID mice. How it is done:
Cpd. Nos. 7 and 11 were dissolved in 10% PCP [10% PEG400 (Sigma), 3% Cremophor (Sigma), and 87% PBS (Gibco)]. The pH of the drug solutions were checked before use and adjusted with 0.5N NaOH to be between pH 6.5 and 8.0 for IV (intravenous) administration.
RS4;11 cells were maintained at 37° C., 95% air, 5% carbon dioxide in Improved MEM (Richter's Mod.) supplemented with 10% Fetal Bovine Serum, 100 units/ml of penicillin and 100 units/ml of streptomycin (GIBCO™, Invitrogen Corp.) and passaged twice weekly.
Tumor cells for xenografts were harvested with Trypsin (0.05%)-EDTA (0.53 mM) (GIBCO™, Invitrogen Corp.), growth medium added and cells placed on ice. Cells were washed once with 1×PBS (GIBCO™, Invitrogen Corp.) and re-suspended in PBS. After washing in PBS, cells were re-suspended in an ice cold mixture of 1:1 PBS and Matrigel (BD Biosciences, Invitrogen Corp.) for a final Matrigel protein concentration of 5 mg/ml. Cells at 5×10^6 cells in 0.1 ml were injected subcutaneously (s.c.) into the flank region of each mouse using a 25 gauge needle. All tumors were inoculated into SCID mice (strain:236) C.B-17 SCID, Charles River.
The size of tumors growing in the mice was measured in two dimensions using calipers. Tumor volume (mm^3)═(A×B^2)/2 where A and B are the tumor length and width (in mm), respectively. During treatment, tumor volume and body weight were measured three times a week. After the treatment was stopped, tumor volume and body weight was measured at least once a week.
Tumors were not allowed to exceed 10% of the animals total body weight. If an animal had two or more tumors the total weight of all tumors were not allowed to exceed 10% of the animal's total body weight. At the end of the experimental period or when tumor size approached 10% of the total body weight, the animal was euthanized.
Before treatment began, tumors were allowed to grow to 100-200 mm^3 in volume, at which point the blood vessel supplies to the tumor should have been well established. Mice with tumors within acceptable size range were randomized into treatment groups of seven mice. Cpd. Nos. 7 and 11 were given i.v. at 10 mg/kg at days 1,3, and 5 per week for two weeks. The Control group received vehicle alone. Cpd. Nos. 16, 18, 22 and 48 were given i.v. at 5 mg/kg at days 1, 3, and 5 per week for two weeks. The Control group received vehicle alone.
(§1) Representative Compounds of the Disclosure were tested in the RS4;11 and other xenograph models using similar techniques. […] No. 22 in the MDA-MB-231 TNBC model.

The subject of a further assay is MDA-MB-231. The assay is described as follows: CellTiter-Glo cell growth inhibition, MDA-MB-231. Type of assay: cell-based. Conditions: Homo sapiens, MDA-MB-231, 96 h, 4 days, Table 4. How it is done: (§2) Cell growth inhibitory activity of representative Compounds of the Disclosure was determined using the CellTiter-Glo® Luminescent Cell Viability Assay. Cells were seeded in 384-well white opaque cell culture plates at a density of 2,000 cells/well with serially diluted compounds and incubated at 37° C. in an atmosphere of 95% air and 5% CO2 for 4 days. Cell viability was determined using the CellTiter-Glo® Luminescent Cell Viability Assay Kit (Promega, Madison, Wis.) according to the manufacture's instruction. Briefly, a volume of CellTiter-Glo® Reagent equal to the volume of cell culture medium was added to each well, and then the plates were incubated at room temperature for 10-20 minutes. The luminescent signal was measured using a Tecan Infinite M1000 multimode microplate reader (Tecan, Morrisville, N.C.). The half maximal inhibitory concentration (IC50) was calculated using the GraphPad Prism 5 software (GraphPad Software, La Jolla, Calif.).
For orientation: In ATP-based viability assays light output follows the ATP content of the culture.

A further assay relates to MOLM-13. The assay is described as follows: CellTiter-Glo cell growth inhibition, MOLM-13. Type of assay: cell-based. Conditions: Homo sapiens, MOLM-13, 96 h, 4 days, Table 4, read-out: MOLM-13 IC50. How it is done:
as §2
(§3) Cpd. Nos. 18 and 19 were tested in various leukemia cell lines using the CellTiter-Glo® Luminescent Cell Viability Assay as described in Example 35.

In another assay the test system is RS4;11. Put plainly: CellTiter-Glo cell growth inhibition, RS4;11. The note with it: Homo sapiens, RS4-11, 96 h, 4 days, Table 4, read-out: RS-4, 11 IC50. Type of assay: cell-based. How it is done: as §2, §3
The next assay concerns MV4;11 xenograph. Put plainly: MV4;11 xenograph model. Type of assay: in vivo. Conditions: FIG. 9. How it is done: as §1
Where [1] appears, read: i.v. 5 mg/kg at days 1, 3, 5 per week for two weeks, FIG. 4.

pIC50: −log10 of the molar value.

For `Cc1nnc2n1-c1sc(C#Cc3cnn(CCCCNc4cccc5c4CN(C4CCC(=O)NC4=O)C5=O)c3)c(Cc3ccccc3)c1CO[C@H]2C` (stereo partly drawn) [Cpd. No. 11, 3-(4-((4-(4-(((S)-3-benzyl-6,9-dimethyl-4H,6H-thieno[2,3-e][1,2,4]triazolo[3,4-c][1,4]oxazepin-2-yl)ethynyl)-1H-pyrazol-1-yl)butyl)amino)-1-oxoisoindolin-2-yl) piperidine-2,6-dione], the “tumor regression in RS4;11 xenograph tumors” value with RS4;11 xenograph tumors (i.v. 10 mg/kg at days 1, 3, 5 per week for two weeks, FIG. 3) is “induce tumor regression”. In addition, the pIC50 (in general, −log10 of the IC50, conventionally taken in molar units) with MDA-MB-231 was 8.64; in the assay with MOLM-13, 9.40.

`Cc1nnc2n1-c1sc(C#Cc3cnn(CCCCNc4cccc5c4C(=O)N(C4CCC(=O)NC4=O)C5=O)c3)c(Cc3ccccc3)c1COC2` (stereo not shown) [Cpd. No. 16, 4-((4-(4-((3-benzyl-9-methyl-4H,6H-thieno[2,3-e][1,2,4]triazolo[3,4-c][1,4]oxazepin-2-yl)ethynyl)-1H-pyrazol-1-yl)butyl)amino)-2-(2,6-dioxopiperidin-3-yl) isoindoline-1,3-dione]: the “tumor regression in RS4;11 xenograph tumors” value in the assay on RS4;11 xenograph tumors (setting [1]) is listed as “induce tumor regression”. The pIC50 in the assay with RS4;11 was 10.00; with MDA-MB-231, 9.54; with MOLM-13, 9.05.

Consider `Cc1nnc2n1-c1sc(C#Cc3cnn(CCCCNc4cccc5c4CN(C4CCC(=O)NC4=O)C5=O)c3)c(Cc3ccccc3)c1COC2` (stereo not shown) [Cpd. No. 17, 3-(4-((4-(4-((3-benzyl-9-methyl-4H,6H-thieno[2,3-e][1,2,4]triazolo[3,4-c][1,4]oxazepin-2-yl)ethynyl)-1H-pyrazol-1-yl)butyl)amino)-1-oxoisoindolin-2-yl) piperidine-2,6-dione], for which the pIC50 with RS4;11 is 10.22; in the assay with MDA-MB-231 it was 9.68; in the assay with MOLM-13, 9.30. The “tumor regression in the MV4;11 xenograph model” value with MV4;11 xenograph is listed as “induce tumor regression”.

With `Cc1nnc2n1-c1sc(C#Cc3cnn(CCCCCc4cccc5c4CN(C4CCC(=O)NC4=O)C5=O)c3)c(Cc3ccccc3)c1COC2` (stereo not shown) [Cpd. No. 48, 3-(4-(5-(4-((3-benzyl-9-methyl-4H,6H-thieno[2,3-e][1,2,4]triazolo[3,4-c][1,4]oxazepin-2-yl)ethynyl)-1H-pyrazol-1-yl)pentyl)-1-oxoisoindolin-2-yl) piperidine-2,6-dione], in the assay with RS4;11 xenograph tumors (setting [1]), the “tumor regression in RS4;11 xenograph tumors” value is “induce tumor regression”. Further, the pIC50 in the assay with RS4;11 was 9.66; in the assay on MDA-MB-231, 9.48; with MOLM-13 it was 8.77.

On to `Cc1nnc2n1-c1sc(C#Cc3cnn(CCCC#Cc4cccc5c4C(=O)N(C4CCC(=O)NC4=O)C5=O)c3)c(Cc3ccccc3)c1COC2` (stereo not shown) [Cpd. No. 49, 4-(5-(4-((3-benzyl-9-methyl-4H,6H-thieno[2,3-e][1,2,4]triazolo[3,4-c][1,4]oxazepin-2-yl)ethynyl)-1H-pyrazol-1-yl)pent-1-yn-1-yl)-2-(2,6-dioxopiperidin-3-yl)isoindoline-1,3-dione], for which the pIC50 with RS4;11 was 9.25; with MDA-MB-231 it was 8.26; with MOLM-13 it was 8.02.

As to `Cc1nnc2n1-c1sc(C#Cc3cn(CCCC#Cc4cccc5c4CN(C4CCC(=O)NC4=O)C5=O)cn3)c(Cc3ccccc3)c1COC2` (stereo not shown) [Cpd. No. 50, 3-(4-(5-(4-((3-benzyl-9-methyl-4H,6H-thieno[2,3-e][1,2,4]triazolo[3,4-c][1,4]oxazepin-2-yl)ethynyl)-1H-imidazol-1-yl)pent-1-yn-1-yl)-1-oxoisoindolin-2-yl)piperidine-2,6-dione], the pIC50 in the assay with RS4;11 is less than 9.00; with MDA-MB-231, less than 7.00; with MOLM-13 it was less than 8.00.

For `Cc1nnc2n1-c1sc(C#Cc3cn(CCCC#Cc4cccc5c4C(=O)N(C4CCC(=O)NC4=O)C5=O)cn3)c(Cc3ccccc3)c1CO[C@H]2C` (stereo partly drawn) [compound 21, 4-(5-(4-(((S)-3-benzyl-6,9-dimethyl-4H,6H-thieno[2,3-e][1,2,4]triazolo[3,4-c][1,4]oxazepin-2-yl)ethynyl)-1H-imidazol-1-yl)pent-1-yn-1-yl)-2-(2,6-dioxopiperidin-3-yl)isoindoline-1,3-dione], the pIC50 with RS4;11 was 8.52; in the assay with MDA-MB-231, 7.22; with MOLM-13 it was 7.80.

On to `Cc1nnc2n1-c1sc(C#Cc3cnn(CCCCOc4cccc5c4CN(C4CCC(=O)NC4=O)C5=O)c3)c(Cc3ccccc3)c1COC2` (stereo not shown) [compound 65, 3-(4-(4-(4-((3-benzyl-9-methyl-4H,6H-thieno[2,3-e][1,2,4]triazolo[3,4-c][1,4]oxazepin-2-yl)ethynyl)-1H-pyrazol-1-yl)butoxy)-1-oxoisoindolin-2-yl)piperidine-2,6-dione], for which the “tumor regression in the MV4;11 xenograph model” value with MV4;11 xenograph was “induce tumor regression”.
